Test results reported in PMC4654778 (Clinical cancer research : an official journal of the …, 2012).

Assays:
[1] = molecular target: FGFR-4 (Homo sapiens, UniProt P22455, G388R); assay type: cell-based
[2] = molecular target: FGFR-1 (Homo sapiens, UniProt P11362); assay type: cell-based
FGFR-1, sequence (P11362 22-822): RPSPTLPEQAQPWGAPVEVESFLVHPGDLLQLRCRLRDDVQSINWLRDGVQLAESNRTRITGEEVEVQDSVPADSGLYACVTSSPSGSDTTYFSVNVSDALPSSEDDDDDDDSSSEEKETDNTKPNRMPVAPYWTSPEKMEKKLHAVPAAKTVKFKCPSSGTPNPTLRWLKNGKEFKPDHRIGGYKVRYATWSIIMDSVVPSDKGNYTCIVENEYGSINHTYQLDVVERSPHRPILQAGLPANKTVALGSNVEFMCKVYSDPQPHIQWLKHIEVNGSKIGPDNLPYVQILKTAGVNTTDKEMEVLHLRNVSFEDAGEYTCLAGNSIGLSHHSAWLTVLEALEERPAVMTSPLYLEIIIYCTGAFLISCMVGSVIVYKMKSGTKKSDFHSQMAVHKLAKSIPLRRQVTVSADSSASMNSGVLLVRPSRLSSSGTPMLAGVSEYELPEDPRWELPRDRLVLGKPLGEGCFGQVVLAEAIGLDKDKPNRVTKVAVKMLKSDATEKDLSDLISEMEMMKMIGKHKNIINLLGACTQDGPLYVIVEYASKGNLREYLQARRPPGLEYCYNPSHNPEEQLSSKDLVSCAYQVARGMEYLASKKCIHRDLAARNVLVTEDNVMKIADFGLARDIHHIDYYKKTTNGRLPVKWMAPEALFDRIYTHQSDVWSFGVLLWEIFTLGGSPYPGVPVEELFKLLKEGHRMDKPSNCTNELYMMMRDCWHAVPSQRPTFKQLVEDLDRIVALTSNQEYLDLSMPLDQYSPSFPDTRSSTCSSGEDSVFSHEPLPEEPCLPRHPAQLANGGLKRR

FGFR-4, sequence (P22455 22-802 G388R): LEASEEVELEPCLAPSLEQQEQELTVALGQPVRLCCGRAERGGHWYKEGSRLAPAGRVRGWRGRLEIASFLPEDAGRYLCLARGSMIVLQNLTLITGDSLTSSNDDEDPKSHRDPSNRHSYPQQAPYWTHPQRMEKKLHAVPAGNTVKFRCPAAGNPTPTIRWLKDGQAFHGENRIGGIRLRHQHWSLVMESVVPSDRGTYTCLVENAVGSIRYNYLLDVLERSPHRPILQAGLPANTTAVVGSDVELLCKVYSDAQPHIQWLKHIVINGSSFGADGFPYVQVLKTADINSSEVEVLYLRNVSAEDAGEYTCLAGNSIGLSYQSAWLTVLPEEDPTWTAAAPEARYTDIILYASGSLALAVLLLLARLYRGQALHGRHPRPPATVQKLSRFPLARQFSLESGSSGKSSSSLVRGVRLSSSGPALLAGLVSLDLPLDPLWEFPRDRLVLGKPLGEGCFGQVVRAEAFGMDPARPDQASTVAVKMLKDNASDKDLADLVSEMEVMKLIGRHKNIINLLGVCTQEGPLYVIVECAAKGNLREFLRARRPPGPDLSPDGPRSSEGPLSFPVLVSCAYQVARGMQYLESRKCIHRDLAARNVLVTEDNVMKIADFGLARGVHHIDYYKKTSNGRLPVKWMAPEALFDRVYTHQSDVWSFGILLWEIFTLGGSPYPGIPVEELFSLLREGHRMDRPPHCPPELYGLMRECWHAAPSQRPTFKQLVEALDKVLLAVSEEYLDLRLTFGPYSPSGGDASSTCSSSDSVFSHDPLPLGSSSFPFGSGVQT

% inhibition at 100 nM [1]: 75
% inhibition at 100 nM [2]: 86
Substance: AZ8010
